We go through 15 molecules from ChEMBL document CHEMBL1201862, “PubChem BioAssay data set” (2004).

In one test the test system is P388/ADR. Kind of test: cells. Format: functional. As to conditions: Mus musculus.
For a further test, the system named is SN12K1. Put plainly: cells. Conditions: Homo sapiens. It counts as functional.
A further test has as its system P388. Kind of test: cells. Format: functional. As to conditions: Mus musculus.
Test [1] can be described thus: HIV-1 AD8 envelope cell-cell fusion blockers – cherry-pick, dose response (AID 652062).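 Note: luciferase signal from cell-cell fusion driven by HIV-1 clade B AD8 Env; potency is for inhibitors of fusion seen as a drop in luminescence.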 Format: functional, cell-based.
Test [2] in a line: blockers of HIV-1 ZM109 envelope-driven cell-cell fusion – HeLa effector, CEM target cells, luciferase, cherry-pick, dose response (AID 652058).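 Note: luciferase signal from HIV-1 Env mediated cell-cell fusion of effector and target cells.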 It counts as functional, cell-based.
A short description of test [3]: viability loss in CEM21 cells – cell-based, CellTiter-Glo luminescence, cherry-picked, cytotoxicity control for viral fusion inhibitor project, dose response (AID 652042).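 Note: potency for signal decrease meaning cytotoxicity.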 It counts as functional.
A short description of test [4]: microbe, parasite or virus in culture. It counts as functional. Conditions: Mycobacterium tuberculosis.
Test [5] in a line: off-target signal loss in HeLa-CEM21 co-culture – HeLa F-luc CTL cells, cherry-picked, counter-screen for HIV-1 Env fusion inhibitor project, dose response (AID 652040).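 Note: potency for signal decrease marking cytotoxic or nonspecific inhibition.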 It counts as functional, cell-based.
A short description of test [6]: blockers of HIV-1 envelope-mediated cell-cell fusion – cherry-pick, dose response (AID 652057). Format: functional, cell-based.
In a further test the target is Beta-galactosidase (Escherichia coli, UniProt Q8VNN2). Kind of test: Dose response counterscreen for EBI2 assay utilizing the enzyme, b-galactosidase. It counts as functional. (In general: A counterscreen serves to expose hits that act by an unwanted route or on another target.)
Test [7] is described as follows: activation of miR-122 Renilla sensor silencing – cell-based, Huh7 psiCHECK-miR122, Renilla luciferase, cherry-picked, dose response (AID 651956).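 Note: huh7 hepatoma cells stably carrying a psiCHECK-2 miR-122 sensor plasmid; renilla luciferase signal reporting endogenous miR-122 activity after 48 h compound exposure.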 Format: functional.
Test [8] is described as follows: general mammalian cell viability loss – activator set, cherry-pick, cytotoxicity control for miR-122 modulator project, dose response (AID 720690).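 Note: HEK293T human cells scored for general mammalian cytotoxicity.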 Format: functional, cell-based.
The target in another test is T1, Caspase-3 (Homo sapiens, UniProt P42574).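 Note: Dose-response selectivity test against caspase-3 for candidate inhibitors of sentrin-specific proteases (SENPs).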
T1 sequence (P42574 whole entry): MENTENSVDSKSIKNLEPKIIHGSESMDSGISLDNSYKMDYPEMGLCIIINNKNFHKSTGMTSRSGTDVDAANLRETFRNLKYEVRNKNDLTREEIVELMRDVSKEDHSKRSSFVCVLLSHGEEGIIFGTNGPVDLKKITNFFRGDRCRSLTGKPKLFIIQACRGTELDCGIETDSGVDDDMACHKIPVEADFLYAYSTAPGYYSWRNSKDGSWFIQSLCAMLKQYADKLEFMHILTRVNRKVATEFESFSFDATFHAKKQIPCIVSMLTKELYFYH
It counts as functional.

Test [9] deals with T2, Sentrin-specific protease 7 (Homo sapiens, UniProt Q9BQF6).
T2 sequence (Q9BQF6 whole entry): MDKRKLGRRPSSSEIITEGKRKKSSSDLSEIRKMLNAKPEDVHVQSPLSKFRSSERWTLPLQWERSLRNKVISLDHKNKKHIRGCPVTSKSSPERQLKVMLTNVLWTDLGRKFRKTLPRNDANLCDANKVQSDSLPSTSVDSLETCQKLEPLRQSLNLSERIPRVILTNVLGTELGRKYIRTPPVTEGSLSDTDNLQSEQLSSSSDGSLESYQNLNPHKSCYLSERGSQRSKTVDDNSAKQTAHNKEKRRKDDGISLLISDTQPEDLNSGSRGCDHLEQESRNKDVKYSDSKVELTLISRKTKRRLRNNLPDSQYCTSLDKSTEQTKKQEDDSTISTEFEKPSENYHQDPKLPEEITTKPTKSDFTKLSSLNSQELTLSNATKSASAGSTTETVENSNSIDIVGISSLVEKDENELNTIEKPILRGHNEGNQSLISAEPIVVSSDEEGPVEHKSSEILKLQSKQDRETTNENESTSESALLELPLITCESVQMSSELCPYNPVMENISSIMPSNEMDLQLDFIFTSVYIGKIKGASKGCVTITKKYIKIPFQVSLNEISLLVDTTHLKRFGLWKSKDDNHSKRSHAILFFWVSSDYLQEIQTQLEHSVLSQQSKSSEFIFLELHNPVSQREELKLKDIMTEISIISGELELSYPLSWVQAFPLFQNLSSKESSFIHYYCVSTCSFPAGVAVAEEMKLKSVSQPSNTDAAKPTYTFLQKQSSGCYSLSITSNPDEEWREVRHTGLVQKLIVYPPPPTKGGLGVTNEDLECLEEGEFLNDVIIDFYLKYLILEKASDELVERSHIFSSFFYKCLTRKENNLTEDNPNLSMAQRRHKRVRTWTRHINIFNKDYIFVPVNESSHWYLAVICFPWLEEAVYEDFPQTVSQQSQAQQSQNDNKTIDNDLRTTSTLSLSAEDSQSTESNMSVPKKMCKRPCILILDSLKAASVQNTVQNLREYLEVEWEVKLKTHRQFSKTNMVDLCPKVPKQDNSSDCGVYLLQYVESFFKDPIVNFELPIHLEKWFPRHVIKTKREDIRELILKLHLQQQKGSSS
Format: functional.

The next test addresses Large T antigen (Simian virus 40, UniProt P03070). Format: functional, Betapolyomavirus macacae.
For test [10], the target named is T3, Sentrin-specific protease 6 (Homo sapiens, UniProt Q9GZR1).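 Note: Luminescence-based dose-response confirmatory assay of SENP6 inhibition, following up an ultra-high-throughput screen.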
T3 sequence (Q9GZR1 whole entry): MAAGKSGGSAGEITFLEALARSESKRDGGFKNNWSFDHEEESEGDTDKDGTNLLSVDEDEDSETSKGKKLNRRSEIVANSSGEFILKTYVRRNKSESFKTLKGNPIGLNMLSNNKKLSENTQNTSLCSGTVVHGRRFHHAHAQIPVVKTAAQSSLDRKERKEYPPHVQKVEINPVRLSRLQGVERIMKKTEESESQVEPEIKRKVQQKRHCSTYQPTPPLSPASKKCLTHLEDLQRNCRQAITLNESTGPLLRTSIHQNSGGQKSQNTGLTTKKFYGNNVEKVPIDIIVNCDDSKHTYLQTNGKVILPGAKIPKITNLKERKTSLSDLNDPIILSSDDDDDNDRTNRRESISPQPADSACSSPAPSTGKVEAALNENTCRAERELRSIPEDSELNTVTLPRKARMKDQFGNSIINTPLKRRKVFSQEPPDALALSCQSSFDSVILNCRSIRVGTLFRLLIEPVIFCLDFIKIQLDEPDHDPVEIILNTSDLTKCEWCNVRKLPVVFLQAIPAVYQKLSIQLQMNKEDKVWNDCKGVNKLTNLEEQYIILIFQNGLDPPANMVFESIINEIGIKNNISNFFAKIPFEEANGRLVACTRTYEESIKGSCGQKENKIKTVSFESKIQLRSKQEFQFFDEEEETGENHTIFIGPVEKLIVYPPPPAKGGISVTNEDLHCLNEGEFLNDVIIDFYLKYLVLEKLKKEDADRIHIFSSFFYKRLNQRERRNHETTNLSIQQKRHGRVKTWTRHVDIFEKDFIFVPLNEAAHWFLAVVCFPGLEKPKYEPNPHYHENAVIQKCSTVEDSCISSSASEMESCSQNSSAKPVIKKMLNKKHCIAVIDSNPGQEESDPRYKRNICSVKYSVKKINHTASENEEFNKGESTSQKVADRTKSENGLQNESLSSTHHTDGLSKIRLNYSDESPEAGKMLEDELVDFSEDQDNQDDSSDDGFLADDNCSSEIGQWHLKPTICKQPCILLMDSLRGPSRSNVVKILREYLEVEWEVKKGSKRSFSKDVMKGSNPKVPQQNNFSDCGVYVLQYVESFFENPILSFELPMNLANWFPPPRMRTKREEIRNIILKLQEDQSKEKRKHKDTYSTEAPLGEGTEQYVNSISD
Format: functional.

Test [11] has as its target T4, Sentrin-specific protease 8 (Homo sapiens, UniProt Q96LD8).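 Note: luminescence read-out of SENP8 inhibition, dose-response confirmation following an ultra-high-throughput screen.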
T4 sequence (Q96LD8 whole entry): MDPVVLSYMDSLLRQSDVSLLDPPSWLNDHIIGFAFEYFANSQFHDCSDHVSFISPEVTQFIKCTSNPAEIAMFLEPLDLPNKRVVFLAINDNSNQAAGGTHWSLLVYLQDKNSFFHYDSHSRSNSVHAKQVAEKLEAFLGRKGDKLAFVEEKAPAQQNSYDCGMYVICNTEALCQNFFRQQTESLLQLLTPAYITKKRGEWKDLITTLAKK
Format: functional.

The next test addresses T5, Leucine aminopeptidase (Plasmodium falciparum 3D7, UniProt Q8IL11).
T5 sequence (Q8IL11 whole entry): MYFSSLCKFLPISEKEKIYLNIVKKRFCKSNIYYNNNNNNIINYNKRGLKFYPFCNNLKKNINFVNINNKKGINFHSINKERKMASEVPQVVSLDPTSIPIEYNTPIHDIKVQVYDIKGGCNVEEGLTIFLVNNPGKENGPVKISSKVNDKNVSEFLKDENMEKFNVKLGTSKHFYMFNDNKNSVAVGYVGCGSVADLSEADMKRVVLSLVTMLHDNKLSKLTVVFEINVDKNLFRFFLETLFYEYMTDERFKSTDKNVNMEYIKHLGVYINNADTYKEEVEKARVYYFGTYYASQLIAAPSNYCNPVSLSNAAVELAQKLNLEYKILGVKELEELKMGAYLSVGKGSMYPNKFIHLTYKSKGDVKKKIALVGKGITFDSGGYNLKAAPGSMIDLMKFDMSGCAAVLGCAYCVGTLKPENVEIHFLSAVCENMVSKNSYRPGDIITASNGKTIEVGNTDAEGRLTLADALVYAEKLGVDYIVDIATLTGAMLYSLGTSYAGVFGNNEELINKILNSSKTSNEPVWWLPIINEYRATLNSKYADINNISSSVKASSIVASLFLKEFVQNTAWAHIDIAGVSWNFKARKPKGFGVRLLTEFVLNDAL
Put plainly: P. falciparum M17LAP inhibitors, primary screen, biochemical, fluorogenic H-Leu-NHMec substrate, 1536-well (AID 1619). Format: functional.

The GI50 is the concentration that inhibits growth by half. As a reminder, the AC50 is the midpoint of the concentration-response curve, whichever way the signal moves. By IC50 is commonly meant the concentration needed to halve the response being measured.

Calls of active or inactive are those of the source.

Beta-galactosidase, sequence (Q8VNN2 whole entry): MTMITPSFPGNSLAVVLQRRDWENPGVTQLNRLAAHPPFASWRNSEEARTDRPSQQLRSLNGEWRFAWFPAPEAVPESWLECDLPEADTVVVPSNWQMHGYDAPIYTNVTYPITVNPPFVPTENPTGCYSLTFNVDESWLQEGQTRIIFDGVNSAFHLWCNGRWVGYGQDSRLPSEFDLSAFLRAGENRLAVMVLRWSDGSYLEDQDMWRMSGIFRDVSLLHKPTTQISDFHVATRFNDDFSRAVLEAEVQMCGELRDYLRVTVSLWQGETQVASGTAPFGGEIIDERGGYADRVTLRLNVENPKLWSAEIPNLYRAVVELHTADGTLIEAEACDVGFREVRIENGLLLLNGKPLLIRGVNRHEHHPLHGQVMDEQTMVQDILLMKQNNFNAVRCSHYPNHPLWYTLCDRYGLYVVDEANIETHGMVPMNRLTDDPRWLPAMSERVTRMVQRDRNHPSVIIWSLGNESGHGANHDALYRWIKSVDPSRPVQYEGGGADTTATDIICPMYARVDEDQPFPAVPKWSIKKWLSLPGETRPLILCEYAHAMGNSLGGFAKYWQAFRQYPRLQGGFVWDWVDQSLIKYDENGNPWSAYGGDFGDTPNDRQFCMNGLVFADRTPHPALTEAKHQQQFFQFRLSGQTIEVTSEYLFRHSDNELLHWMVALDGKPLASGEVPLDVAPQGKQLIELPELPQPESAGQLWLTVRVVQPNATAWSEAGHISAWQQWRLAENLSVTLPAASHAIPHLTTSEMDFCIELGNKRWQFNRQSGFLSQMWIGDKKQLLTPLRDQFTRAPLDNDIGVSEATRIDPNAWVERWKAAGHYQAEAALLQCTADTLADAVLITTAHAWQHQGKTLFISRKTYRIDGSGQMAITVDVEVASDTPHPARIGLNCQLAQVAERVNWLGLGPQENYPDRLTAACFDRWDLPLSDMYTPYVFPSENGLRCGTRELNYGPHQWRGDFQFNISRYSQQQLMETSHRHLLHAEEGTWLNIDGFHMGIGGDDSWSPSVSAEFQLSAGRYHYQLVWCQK
Large T antigen, sequence (P03070 whole entry): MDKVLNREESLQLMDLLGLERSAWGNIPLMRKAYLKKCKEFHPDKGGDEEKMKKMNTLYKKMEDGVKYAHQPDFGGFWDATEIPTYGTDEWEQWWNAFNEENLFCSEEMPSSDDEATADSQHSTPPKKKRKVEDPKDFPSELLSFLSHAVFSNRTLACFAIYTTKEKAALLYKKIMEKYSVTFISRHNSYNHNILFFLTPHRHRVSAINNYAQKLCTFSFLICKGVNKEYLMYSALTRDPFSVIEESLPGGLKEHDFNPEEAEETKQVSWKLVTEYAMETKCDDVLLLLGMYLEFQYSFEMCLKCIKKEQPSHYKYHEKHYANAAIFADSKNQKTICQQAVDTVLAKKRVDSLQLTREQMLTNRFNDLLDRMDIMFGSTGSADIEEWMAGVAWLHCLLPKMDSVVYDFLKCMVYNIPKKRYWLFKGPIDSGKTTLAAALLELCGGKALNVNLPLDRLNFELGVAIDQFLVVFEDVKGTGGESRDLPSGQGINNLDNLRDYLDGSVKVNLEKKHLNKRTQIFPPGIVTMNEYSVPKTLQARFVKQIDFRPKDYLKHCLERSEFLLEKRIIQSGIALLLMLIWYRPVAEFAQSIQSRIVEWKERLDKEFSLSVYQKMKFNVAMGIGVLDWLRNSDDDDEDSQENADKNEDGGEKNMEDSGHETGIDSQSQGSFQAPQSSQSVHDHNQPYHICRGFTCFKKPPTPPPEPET

In the case of `CCOC(=O)/C(O)=C1\C(=O)N(C)C(=O)C1c1ccc(OC)c(OC)c1` (centres undefined), the GI50 with P388/ADR was > 31.6 µM (inactive); in the test with SN12K1 it was > 100 µM (inactive); in the test with P388, > 100 µM (inactive).

Take `Cc1ccccc1-c1nc(CN2CCC(C(=O)NCCC3=CCCCC3)CC2)c(C)o1`: the AC50 was 7.96 µM (active) in test [1]; 6.35 µM (active) in test [2]; 25.6 µM (active) in [3]; 7.7 µM (active) in [5]; 4.21 µM (active) in [6]. For the same molecule, in [4], the CC50 is > 40 µM (active).

As for `CN1CCN(C(=O)/C=C/c2ccc(Cl)c(Cl)c2)CC1`, the IC50 at Beta-galactosidase was > 80 µM (inactive).

As to `CN(C)C(CN)CC1=C(CC(CN)N(C)C)CCC1` (centres undefined), the GI50 in the test on P388/ADR, in the test on SN12K1 and in the test with P388 was > 100 µM (inactive) each time.

For the molecule `CNC[C@@H]1Oc2cc(C#Cc3cccc(OC)c3)ccc2S(=O)(=O)N([C@@H](C)CO)C[C@@H]1C`, the concentration at half-maximal activity (AC50) in [7] is 9.73 µM (active); in test [8] it was 14.9 µM (active).

For `CCOc1ccc(NC(S)=Nc2ccc(C)c([N+](=O)[O-])c2)cc1`, at Beta-galactosidase, the IC50 was 131 µM (inactive).

For the molecule `Cc1[nH]c2ccc(C(=O)N3CCN(c4ccc(F)cc4)CC3)cc2c1C`, at Beta-galactosidase, the IC50 is > 80 µM (inactive).

Take `COc1ccc2c3c([nH]c2c1)[C@@H](CO)N(C(=O)Nc1cccc(F)c1)CC31CCN(S(=O)(=O)c2ccccc2)CC1`: the AC50 was 21 µM (active) in test [3] and 23.2 µM (active) in test [6].

On to `Cc1cc(C)n(-c2ccc(C(=O)N3CCN(S(=O)(=O)c4ccc(Br)cc4Cl)CC3)cc2)n1`, for which the IC50 at Beta-galactosidase is > 80 µM (inactive).

For `CC1=C(C(=O)Nc2ccc(Cl)c(C(=O)OC(C)C)c2)SCCO1`, the GI50 is 29.2 µM (inactive) in the test with P388/ADR, 58.6 µM (inactive) in the test with SN12K1 and 23.2 µM (inactive) in the test on P388.

Turning to `CCN(CC)c1ccc(NC(=O)COC(=O)c2cccs2)cc1`, the 50% inhibitory concentration (IC50) is 16.2 µM (active) at Caspase-3; 11.7 µM (active) in [9]; 15.2 µM (active) on Large T antigen; 98.2 µM (active) in test [10]; > 100 µM (inactive) in [11]; 15.7 µM (active) on Leucine aminopeptidase.

Take `CCC1(O)CC(OC2CC(N(C)C)C(OC3CC4OC5CC(=O)C(C)OC5OC4C(C)O3)C(C)O2)c2c(cc3c(c2O)C(=O)c2c(O)ccc(O)c2C3=O)C1C(=O)OC` (centres undefined): the values for the 50% growth inhibitory concentration (GI50) in the test on P388/ADR, in the test with SN12K1 and in the test with P388 were 0.000703 µM (active), 0.00741 µM (active) and 0.000368 µM (active), respectively.

Take `C[C@@H]1CCCCO[C@@H](CN(C)CC2CCCCC2)[C@H](C)CN([C@@H](C)CO)C(=O)c2cc(NC(=O)Nc3cccc4ccccc34)ccc2O1`: the AC50 was 5.03 µM (active) in [7] and 47.3 µM (active) in test [8].

With `COc1cc2c(cc1OC)C(Cc1c3ccccc3cc3ccccc13)N(C)CC2` (centres undefined), the GI50 is 15.8 µM (inactive) in the test on P388/ADR, 15.5 µM (inactive) in the test on SN12K1 and 18.7 µM (inactive) in the test with P388.

Regarding `C[C@H](CO)N1C[C@H](C)[C@H](CN(C)S(=O)(=O)c2cccc(F)c2)Oc2ncc(C#CC3CCCCC3)cc2C1=O`, the figures for the half-maximal activity concentration (AC50) in test [7] and in test [8] were 6.43 µM (active) and 32.3 µM (active), respectively.
